“And” between values parts separate entries of the source, which are not always exact repeats. Equal values may be shown once.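 Interpolation was linear, between the two tested concentrations surrounding the appropriate level; five concentrations were tested over 48 hours in 96-well plates. GI50 is the concentration that inhibits growth by half. The concentration for full growth arrest is given as TGI.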 Where only a bound is given, the exact number is not on record here.

The results in this text go back to PubChem BioAssay (NCI).

Common to all, as to experiment: NCI tumour cell line growth inhibition, 48 h
Assay [1] has as its system M19-MEL melanoma.
Assay [2] deals with XF 498 CNS.
Assay [3] deals with DLD-1 colon.
In assay [4] the test system is DMS 273 small cell lung.
Assay [5] has as its system RXF-631 renal.
Assay [6] relates to LXFL 529 NSCLC.
The subject of assay [7] is DMS 114 small cell lung.
Assay [8] has as its system HOP-18 NSCLC.
Assay [9] deals with MDA-N.
Assay [10] concerns P388/ADR leukemia.
The subject of assay [11] is SN12K1 renal.
For assay [12], the system named is P388 leukemia.

Take `COC(=O)CCC(=O)C(C#N)c1ccc(Cl)cc1Cl` (stereo not given): the TGI in assay [1], in assay [2], in [3], in assay [4], in assay [5] and in [6] was above 100 µM each time.

Regarding `NC(CCCNCc1ccccc1O)C(=O)O` (stereo not given), the TGI in assay [1], in assay [3], in [7], in [4], in assay [8] and in assay [6] was above 100 µM throughout.

With `[O-][N+]1=C(c2ccccc2)COc2ccccc21`, the TGI in assay [1], in assay [3], in assay [7], in [4], in assay [5] and in [8] was above 100 µM throughout. In addition, the TGI in assay [6] is above 100 µM.

Regarding `C/C(CN1C(=O)c2ccccc2C1=O)=N\NS(C)(=O)=O`, the TGI in assay [1], in assay [2], in assay [3], in [7], in assay [4] and in [8] was above 100 µM in each case. In addition, the TGI in [6] was above 100 µM.

For the compound `Clc1ccc(CCn2cncn2)c(Cl)c1`, the TGI in [1], in assay [3], in assay [7], in [4], in assay [8] and in [6] was above 100 µM each time.

In the case of `C/C(CC(=O)Nc1ccc([N+](=O)[O-])cc1)=N/N=C(N)N`, the TGI in [1], in [2], in assay [3], in [7], in assay [4] and in assay [5] was above 100 µM in each case. Moreover, the TGI in [6] is above 100 µM.

As to `COc1ccc(OC)c(/C=C/c2cnnc3ccccc23)c1`, the TGI in [9] came to 2.5 µM.

`N#Cc1ccccc1/C=N/O`: the TGI in [1] was above 100 µM; in [2], above 100 µM; in [3] it was above 100 µM; in assay [7] it was above 100 µM; in [4] it was above 55.6 µM; in [8], above 100 µM. The TGI in assay [6] is above 100 µM.

With `Cc1cc2c(=O)cc(-c3ccc(C(=O)O)cc3)oc2c(C(=O)O)c1C`, the TGI in [1], in assay [3], in [7], in assay [4], in assay [5] and in assay [8] was above 100 µM throughout. Moreover, the TGI in assay [6] is above 100 µM.

For the compound `O=C(Nc1ccc(Cl)cc1Cl)/C(Cl)=C1/Sc2ccccc2NC1=O`, the TGI is above 100 µM in assay [1]; 40.5 µM in assay [2]; above 100 µM in assay [3]; 80 µM in assay [7]; above 100 µM in assay [6].

As for `CNC(=S)N/N=C(/C)CCC/C(C)=N/NC(=S)NC`, the TGI in assay [9] is above 100 µM.

Regarding `O=C(Cc1nc2ccccc2s1)NC12CC3CC(CC(C3)C1)C2`, the TGI in [1], in [3], in [4], in [5] and in [6] was above 100 µM in each case.

`Cc1cc(NC(=O)C(=O)Cc2nc3ccccc3s2)ccc1Cl`: the TGI in assay [1], in assay [2], in [3], in assay [9], in assay [7] and in assay [4] was above 100 µM throughout. For the same compound, the TGI in [8] and in assay [6] was above 100 µM throughout.

In the case of `O=C(/C=C/c1ccc2c(c1)OCO2)c1ccccc(=O)c1O`, the TGI in assay [9] was above 100 µM.

As to `C=C1CCC2C(C)(CO)C(O)CCC2(C)C1CC(O)C1=CCOC1=O` (stereo not given), the TGI in assay [1], in [3], in assay [7], in [4], in [5] and in [8] was above 100 µM throughout. In [6], this compound yielded a TGI above 100 µM.

`Cn1c(-c2ccccc2)c/c(=N\NS(C)(=O)=O)c2cc(S(=O)(=O)O)ccc21`: the TGI in assay [1], in [2], in [3], in [7], in assay [4] and in [8] was above 100 µM each time. Further, the TGI in assay [6] was above 100 µM.

`COC(=O)c1cc(O)ccc1NC(=O)c1ccc(O)cc1`: the TGI in assay [1], in [2], in assay [3], in assay [7], in assay [5] and in assay [8] was above 100 µM each time. For the same compound, in assay [6], the TGI is above 100 µM.

As for `O=S(=O)(c1ccccc1)C1CN(Cc2ccccc2)CCN(Cc2ccccc2)C1`, the TGI in assay [1] was above 100 µM; in assay [2], 63 µM; in [3], 84.7 µM; in assay [9], 59.5 µM; in assay [7], above 100 µM; in assay [4], above 100 µM. In assay [6], this compound showed a TGI above 100 µM.

For the compound `O=[N+]([O-])c1ccc(C2N3CCCCC3[C@@H]3c4[nH]c5ccccc5c4CCN23)cc1` (stereo not given in full), the TGI is 24.4 µM in assay [1]; 33.9 µM in assay [2]; 57.7 µM in [3]; 22 µM in assay [7]; above 100 µM in assay [4]; above 100 µM in assay [5]. The TGI in assay [8] and in assay [6] was above 100 µM throughout.

Consider `O=C1CC23CC(=O)CC2(C1)c1ccccc1C3=O` (stereo not given), for which the TGI in assay [1], in assay [2], in assay [3], in assay [7], in [4] and in assay [8] was above 100 µM each time. The TGI in assay [6] is above 100 µM.

As for `Cn1c(C2CC(C)(C)c3c2c2ccccc2n3C)cc2ccccc21` (stereo not given), the TGI in [1], in [2], in [3], in assay [7], in [4] and in assay [6] was above 304 µM throughout.

`N=C1N=Nc2nc(C3(c4nc5n(c4O)C(=N)N=N5)Cc4ccccc4C3=O)c(O)n21` (stereo not given) returned a TGI in [9] above 100 µM.

Take `CC1=NN(c2ccccc2)C(=O)C1C(=O)C(=O)Nc1ccc(C)cc1C` (stereo not given): the TGI in assay [1], in assay [3], in assay [7], in assay [4], in assay [8] and in [6] was above 100 µM each time.

As for `COc1cc([C@@H]2c3cc4c(cc3[C@@H](NC(=O)c3ccc([N+](=O)[O-])cc3)C3COC(=O)[C@@H]32)OCO4)cc(OC)c1O` (stereo not given in full), the TGI came out at 19 µM in [1]; 0.964 µM in assay [2]; 11.3 µM in assay [3]; 2.35 µM in assay [7]; 3.54 µM in assay [4]; 4.48 µM in [5]. Further, the TGI in assay [8] and in assay [6] was above 100 µM throughout.

In the case of `CC(C)(C)C1CCN(C(=O)c2ccccc2)CC1`, the TGI in assay [1] was above 100 µM; in assay [3], above 100 µM; in [7], 98.8 µM; in assay [4] it was above 100 µM; in assay [8], above 100 µM; in assay [6] it was above 100 µM.

Compound `O=C(O)C#Cc1ccc([N+](=O)[O-])cc1` displayed a TGI in [9] above 100 µM.

With `COc1ccc2c(c1)N(CCC1CCCCN1C)c1ccccc1S2` (stereo not given), the TGI in [9] came to 25.7 µM.

On to `COC(=O)C1CCc2nnc(-c3cccnc3)n21` (stereo not given), for which the TGI in assay [1], in [3], in assay [7], in [4], in assay [5] and in assay [8] was above 100 µM throughout. In [6], this compound displayed a TGI above 100 µM.

`COC(=O)C12OCC34C(CC5C(C)=CC(=O)C(O)C5(C)C3C(O)C1O)OC(=O)C(OC(=O)CC(C)C)C24` (stereo not given): the GI50 in [1] was below 0.0377 µM; in [10], 0.0657 µM; in assay [2], 0.041 µM and 0.05 µM; in assay [11], 0.000382 µM; in assay [3] it was 0.0633 µM and 0.05 µM; in assay [7], 0.133 µM. Also, the GI50 in assay [12] is 0.05 µM; in assay [8], 0.00907 µM and 0.0441 µM and 0.05 µM; in [6] it was 0.00384 µM. Moreover, the TGI was 0.00272 µM in [11]; 0.00503 µM in assay [9]; 0.0463 µM and 0.274 µM and 0.219 µM in assay [8]; 0.0825 µM and 0.104 µM in assay [6].

In the case of `O=c1[nH]c(C2CCCCC2)nc2cc(Cl)ccc12`, the TGI in assay [1], in assay [7], in assay [4] and in [6] was above 100 µM in each case.

Regarding `O=C(CCc1cc(-c2ccco2)n(-c2ccc([N+](=O)[O-])cc2[N+](=O)[O-])n1)Nc1ccccc1`, the TGI in [1], in assay [2], in [3], in assay [7], in assay [4] and in assay [5] was above 100 µM in each case. This compound gave a TGI in assay [6] above 100 µM.

For `FC(F)(F)c1ccccc1C=NC12CC3CC(CC(C3)C1)C2`, the TGI in [1], in assay [2], in assay [7] and in assay [4] was above 100 µM in each case.

Take `Cn1c2ccccc2c(=S)c2cc(NC(=O)CCCCC(=O)Nc3ccc4c(c3)c(=S)c3ccccc3n4C)ccc21`: the TGI in [9] is above 100 µM.

With `COC1(C)Cc2c(c(C)c(O)c3c2C(=O)C=C(Cl)C3=O)O1` (stereo not given), the TGI in assay [1] was 38.9 µM; in assay [2], above 56.4 µM; in [3], 37.1 µM; in assay [9], above 100 µM; in assay [7], 76.6 µM; in assay [4] it was above 100 µM. Further, in [6], the TGI amounted to 28.9 µM.

In turn, `O=C1/C(=c2\c3ccccc3n3c(=O)c4ccccc4nc23)Nc2ccccc21` gave a TGI in assay [9] of 33.6 µM.
